Data on 28 compounds can be found in US9212180B2 (priority 2013, dated 2015).

The target of the experiment is T1, menin-MLL interaction (Homo sapiens, UniProt O00255).
T1 sequence (O00255 1-610): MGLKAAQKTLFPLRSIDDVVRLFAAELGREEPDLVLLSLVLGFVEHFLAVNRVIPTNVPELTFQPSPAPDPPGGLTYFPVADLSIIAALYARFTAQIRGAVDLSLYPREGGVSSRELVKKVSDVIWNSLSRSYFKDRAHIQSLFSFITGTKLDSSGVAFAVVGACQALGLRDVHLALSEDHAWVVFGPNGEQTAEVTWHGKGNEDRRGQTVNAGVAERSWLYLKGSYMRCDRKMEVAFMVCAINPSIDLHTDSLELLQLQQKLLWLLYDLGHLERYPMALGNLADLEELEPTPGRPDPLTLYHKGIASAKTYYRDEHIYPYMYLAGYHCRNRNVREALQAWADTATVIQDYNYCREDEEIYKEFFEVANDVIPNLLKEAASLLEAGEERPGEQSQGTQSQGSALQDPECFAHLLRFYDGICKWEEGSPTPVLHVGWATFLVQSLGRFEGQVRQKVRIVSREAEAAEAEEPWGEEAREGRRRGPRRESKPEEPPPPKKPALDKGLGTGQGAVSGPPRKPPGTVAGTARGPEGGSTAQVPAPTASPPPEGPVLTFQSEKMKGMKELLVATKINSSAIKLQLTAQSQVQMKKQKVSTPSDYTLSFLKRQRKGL
The experiment is described as follows: biochemical.
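Also: fluorescence polarization competition assay, inhibitors lower the fluorescence anisotropy signal, IC50 taken from this drop.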

Method: Fluorescence Polarization Assay.
Compounds that inhibit the interaction decrease the fluorescence anisotropy which is being used as a read-out for compound screening and for IC50 determination. For validation of the FP assay, a control competition experiment with unlabeled MLL peptide (no fluorescein attached) was performed.

By IC50 is commonly meant the midpoint of a concentration-inhibition curve. A high value points to weaker potency in that assay. Regarding `Oc1ccccc1-c1ccc(OCCCN2CCC(C(O)(c3ccccc3)c3ccccc3)CC2)cc1` [Compound B29], it took 8.3 µM to reach half-maximal inhibition (IC50). In other words, the single-digit micromolar range.
Then `OC(c1ccccc1)(c1ccccc1)C1CCN(CCCOc2ccc(OC(F)(F)F)cc2)CC1` [Compound B4], with 98 µM; and `OC(c1ccccc1)(c1ccccc1)C1CCN(CCCOc2ccc(-c3cccnc3)cc2)CC1` [Compound B36], with 22.6 µM.
The compound `N#Cc1ccc(OC[C@@H](O)CN2CCC(C(O)(c3ccccc3)C3CCCC3)CC2)cc1` (stereo partly shown) [Compound B43] showed an IC50 of 0.948 µM.
With `CC(=O)NCc1ccc(OCCCN2CCC(C(O)(c3ccccc3)c3ccccc3)CC2)cc1` [Compound B38] the figure was 20.7 µM.
With `CN(C)S(=O)(=O)c1ccc(OCCCN2CCC(C(O)(c3ccccc3)c3ccccc3)CC2)cc1` [Compound B30] the figure was 40 µM; with `NS(=O)(=O)c1ccc(OCCCN2CCC(C(O)(c3ccccc3)c3ccccc3)CC2)cc1` [Compound B24], 14.3 µM.
In the case of `CC(CCN1CCC(C(O)(c2ccccc2)c2ccccc2)CC1)Oc1ccc([N+](=O)[O-])cc1Cl` (stereo not shown) [Compound B52], the half-maximal inhibitory concentration (IC50) stood at 55 µM.
Then `N#Cc1ccc(OCCCN2CCC(C(O)(c3ccccc3)C(F)(F)F)CC2)cc1` (stereo not shown) [Compound B23], with 31 µM.
`N#Cc1ccc(NCCCN2CCC(C(O)(c3ccccc3)c3ccccc3)CC2)cc1` [Compound B42] came in with a 50% inhibitory concentration (IC50) of 9.56 µM. This IC50 is about 3.2-fold lower than that of the compound before.
Then `N#Cc1ccc(OCCCN2CCC(C(O)(C3=CCCC3)c3ccccc3)CC2)cc1` (stereo not shown) [Compound B32], with 2.08 µM.
As to `N#Cc1ccc(OCCCN2CCC(C(O)(C3CCCC3)C3CCCC3)CC2)cc1` [Compound B31], the half-inhibitory concentration (IC50) was found to be 1.4 µM. This IC50 and that of the compound before are within 1.5-fold of each other.
In turn, `COC(c1ccccc1)(C1CCCC1)C1CCN(CCCOc2ccc(C#N)cc2)CC1` (stereo not shown) [Compound B62] returned a concentration for half-maximal inhibition (IC50) of 0.743 µM.
Then `CC(COc1ccc(C#N)c(F)c1)CN1CCC(C(O)(c2ccccc2)c2ccccc2)CC1` (stereo not shown) [Compound B49], with 70.8 µM.
Take `N#Cc1ccc(OCCCN2CCC(C(O)(c3cc(F)cc(F)c3)c3ccccn3)CC2)cc1` (stereo not shown) [Compound B81]: the IC50 was determined as 0.9 µM.
For the compound `CS(=O)(=O)c1ccc(OC[C@@H](O)CN2CCC(C(O)(c3ccccc3)c3ccccc3)CC2)cc1` [Compound B45], the IC50 is 21 µM.
With `OC(c1ccccc1)(c1ccccc1)C1CCN(CCCOc2ccc(C(F)(F)F)cc2)CC1` [Compound B3] the figure was 52 µM.
Consider `N#Cc1ccc(OCCCN2CCC(C(O)(Cc3ccccc3)C3=CCCC3)CC2)cc1` (stereo not shown) [Compound B59], for which the IC50 is 11.3 µM.
`NCc1ccc(OCCCN2CCC([C@](O)(c3ccccc3)C3CCCC3)CC2)cc1` [Compound B27] returned an IC50 of 13.9 µM.
`O=C(c1ccc(OCCCN2CCC(C(O)(c3ccccc3)C3CCCC3)CC2)cc1)C1CCCC1` (stereo not shown) [Compound B26] showed a concentration for half-maximal inhibition (IC50) of 3.95 µM. This IC50 lies about 3.5-fold lower than the previous one.
On to `Cc1ccc(OC[C@@H](O)CN2CCC(C(O)(c3ccccc3)c3ccccc3)CC2)cc1` [Compound B46], for which the IC50 worked out at 100 µM.
The compound `CS(=O)(=O)NCc1ccc(OCCCN2CCC(C(O)(c3ccccc3)c3ccccc3)CC2)cc1` [Compound B25] displayed a concentration for half-maximal inhibition (IC50) of 40 µM.
Then `COC(c1ccccc1)(c1ccccc1)C1CCN(CCCOc2ccc(C#N)cc2)CC1` [Compound B55], with 5.3 µM.
Regarding `CN(C)CCOC(c1ccccc1)(c1ccccc1)C1CCN(CCCOc2ccc(C#N)cc2)CC1` [Compound B56], the half-maximal inhibitory concentration (IC50) came out at 4.2 µM. This IC50 and that of the compound before are within 1.5-fold of each other.
As for `COC(=O)c1ccc(OCCCN2CCC(C(O)(c3ccccc3)c3ccccc3)CC2)cc1` [Compound B16], the concentration for half-maximal inhibition (IC50) was found to be 86 µM.
With `O[C@H](COc1ccc(Cl)cc1)CN1CCC(C(O)(c2ccccc2)c2ccccc2)CC1` [Compound B47] the figure was 40 µM; with `OC(c1ccccc1)(c1ccccc1)C1CCN(CCCOc2ccc(-c3ccncc3)cc2)CC1` [Compound B35, Diphenyl(1-(3-(4-(pyridin-4-yl)phenoxy)propyl)piperidin-4-yl)methanol], 30.6 µM.
With `CS(=O)(=O)c1ccc(OCCCN2CCC(C(O)(c3ccccc3)c3ccccc3)CC2)cc1` [Compound B33] the figure was 58.5 µM.
